Each compound was assayed against T1, 5-HT1A receptors (Rattus norvegicus, UniProt P19327) (assay: Inhibition of 3H-8-OH-DPAT binding to synaptosomal membranes from rat cerebral cortex). Conditions: 0.4 nM 3H-8-OH-DPAT, 37°C, 10 min, read-out: IC50 (concentration in nanomoles which inhibited binding of 8-OH-DPAT by 50%).
T1 construct: from tissue; host or cells: rat cerebral cortex, crude synaptosomal membranes
T1 sequence (P19327 1-422): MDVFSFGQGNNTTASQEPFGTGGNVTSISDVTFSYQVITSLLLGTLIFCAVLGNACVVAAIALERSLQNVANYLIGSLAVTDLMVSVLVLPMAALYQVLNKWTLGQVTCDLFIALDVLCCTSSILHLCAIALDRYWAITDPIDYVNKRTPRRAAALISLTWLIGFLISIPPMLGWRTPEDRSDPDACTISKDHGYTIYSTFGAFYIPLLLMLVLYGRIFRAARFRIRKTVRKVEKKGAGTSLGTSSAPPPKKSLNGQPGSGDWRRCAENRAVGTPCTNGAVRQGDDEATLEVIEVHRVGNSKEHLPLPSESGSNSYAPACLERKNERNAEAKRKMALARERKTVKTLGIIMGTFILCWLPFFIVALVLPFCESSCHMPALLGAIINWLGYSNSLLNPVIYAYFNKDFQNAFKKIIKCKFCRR
Design: species or system Male Sprague-Dawley rats
Method: This general procedure is set forth in Wong et al., J. Neural Transm. 71:207-218 (1988).
Male Sprague-Dawley rats (110-150 g) from Harlan Industries (Cumberland, IN) were fed a Purina Chow ad libitum for at least 3 days before being used in the studies. Rats were killed by decapitation. The brains were rapidly removed, and the cerebral cortices were dissected out at 4°C.
Brain tissues were homogenized in 0.32 M sucrose. After centrifugation at 1000 x g for 10 min and then at 17000 x g for 20 min, a crude synaptosomal fraction was sedimented. The pellet was suspended in 100 vol of 50 mM Tris-HCl, pH 7.4, incubated at 37°C for 10 min, and centrifuged at 50000 x g for 10 min. The process was repeated and the final pellet was suspended in ice-chilled 50 mM Tris-HCl, pH 7.4. By the radioligand binding method, sites specifically labeled by tritiated 8-hydroxy-2-dipropylamino-1,2,3,4-tetrahydronaphthalene (^3H-8-OH-DPAT) have been identified as 5-HT1A receptors.
Binding of (^3H-8-OH-DPAT) was performed according to the previously described method [Wong et al., J. Neural Transm. 64:251-269 (1985)]. Briefly, synaptosomal membranes isolated from cerebral cortex were incubated at 37°C for 10 min. in 2 ml of 50 mM Tris-HCl, pH 7.4; 10 µM pargyline; 0.6 mM ascorbic acid; 0.4 nM ^3H-8-OH-DPAT; and from […] of test compound. Binding was terminated by filtering samples under reduced pressure through glass fiber (GFB) filters. The filters were washed twice with 5 ml of ice cold buffer and placed in scintillation vials with 10 ml of PCS (Amersham/Searle) scintillation fluid. Radioactivity was measured with a liquid scintillation spectrometer. Unlabeled 8-OH-DPAT at 10 µM was also included in separate samples to establish non-specific binding. Specific binding of ^3H-8-OH-DPAT is defined as the difference of radioactivity bound in the absence and in the presence of 10 µM unlabeled 8-OH-DPAT.
For these compounds which inhibited the binding of ^3H-8-OH-DPAT by less than 50%, the percent of inhibition is given in parenthesis.

IC50	Structure (SMILES)
11 nM	CCCN(CCC)[C@@H]1Cc2c(C(N)=O)ccc3c2[C@H](CN3)C1 [Example 9, (2aR,4S)-4-(di-n-propylamino)-6-aminocarbonyl-1,2,2a,3,4,5-hexahydrobenz[c,d]indole]
2.1 nM	CCCN(CCC)[C@H]1Cc2c(C(N)=O)ccc3c2[C@@H](CN3)C1 [Example 10, (2aS, 4R)-4-(di-n-propyl)-6-aminocaronyl-1,2,2a,3,4,5-hexahydrobenz[c,d]indole]
5.7 nM	CCCN(CCC)[C@H]1Cc2c(C(=O)OC)ccc3c2[C@@H](CN3)C1 [Example 11, Methyl (2aS,4R)-4-(Di-n-propylamino)-1,2,2a,3,4,5-hexahydrobenz[c,d]indole-6-carboxylate]
5.1 nM	CCCN(CCC)[C@H]1Cc2c(C(=O)N(C)C)ccc3c2[C@@H](CN3)C1 [Example 12, (2aS,4R)-N,N-Dimethyl-4-(di-n-propylamino)-1,2,2a,3,4,5-hexahydrobenz[cd]indole-6-carboxamide]

Same assay, conditions: at 100 nanomoles of test compound, 0.4 nM 3H-8-OH-DPAT, read-out: percent of inhibition of binding of 8-OH-DPAT at 100 nanomoles if less than 50%

Structure (SMILES)	inhibition at 0.1 µM
N[C@@H]1Cc2c(Br)ccc3c2[C@@H](C1)CN3C(=O)c1ccccc1 [Example 1, (2aR,4S)-1-benzoyl-4-amino-6-bromo-1,2,2a,3,4,5-hexahydrobenz[cd]indole]	6%
CCCN(CCC)[C@@H]1Cc2c(Br)ccc3c2[C@@H](C1)CN3C(=O)c1ccccc1 [Example 3, (2aR, 4S)-1-Benzoyl-4-(di-n-propyl)-amino-6-bromo-1,2,2a,3,4,5-hexahydrobenz[cd]indole]	5%
CCCN(CCC)[C@@H]1Cc2c(C#N)ccc3c2[C@@H](C1)CN3C(=O)c1ccccc1 [Example 5, (2aR,4S)-1-benzoyl-4-(di-n-propyl)amino-6-cyano-1,2,2a,3,4,5-hexahydrobenz[cd]indole]	11%
CCCN(CCC)[C@@H]1Cc2c(C#N)ccc3c2[C@H](CN3)C1 [Example 7, (2aR,4S)-4-(di-n-propyl)amino-6-cyano-1,2,2a,3,4,5-hexahydrobenz[cd]indole]	21%
